Laboratory results taken from US20200246316A1, “METHODS OF TREATING POST-SURGICAL PAIN WITH A THIAZOLINE ANTI-HYPERALGESIC AGENT” (CERSCI THERAPEUTICS, INC., priority 2019, published 2020).

What was measured:
[1] = system: rat hind paw incision model; assay: Brennan incisional pain model, prophylactic paradigm; type: in vivo; details: single pre-surgical dose; 24 h, 48 h, 72 h post dose; FIG. 11
Description: (§1) Two incisional pain models were used to assess Compound 1 effects on hyperalgesia. The first model is referred to as the Brennan model in which, under anesthesia, a 1 cm longitudinal incision to the skin and underlying fascia of a rat hindpaw is made. The second is a variation but is a more invasive procedure in which the skin and muscle are spread apart using forceps which creates a longer-lasting hypersensitivity.
Using the Brennan protocol and a prophylactic paradigm, Compound 1 (3 doses given PO) or vehicle was administered 15 min prior to incision. At the 24-, 48-, and 72-h time points post-incision, mechanical thresholds were obtained (manual von Frey filament, using up/down method).
In a subsequent experiment, the same paradigm was used with Compound 1 administered at a dose of 30 mg/kg PO along with positive control group consisting of celecoxib (30 mg/kg PO), morphine (10 mg/kg SC), and vehicle.

[2] = system: established incision-induced mechanical hyperalgesia; assay: Brennan incisional pain model, treatment paradigm; type: in vivo, rat; details: morphine 3 mg/kg SC
Description: as §1
Using the Brennan protocol and a treatment paradigm in rat, Compound 1 (10 and 30 mg/kg PO), morphine (3 mg/kg SC) or vehicle were administered daily at 24 h post-incision, and again at 48 and 72 h post-incision. Mechanical thresholds were obtained at 1 h and 2 h post-dose in all cohorts on all days.

SMILES	effect on development of mechanical hyperalgesia [1]	effect on established mechanical hyperalgesia (overall) ([2]; Compound 1 10 and 30 mg/kg PO daily, FIG. 12)	analgesia ([2]; Day 1, 2-h time point)	mechanical threshold ([2]; Day 1, 1 h post-dose)	hyperalgesia ([2]; Day 2, 1-h time point)	hyperalgesia ([2]; Day 2, 2 h)	mechanical threshold ([2]; Day 2 prior to dosing (Pre-Drug (D2)))
Cc1ccc(-c2cc(C(F)(F)F)nn2-c2ccc(S(N)(=O)=O)cc2)cc1 [celecoxib, reference compound]	no effect	–	–	–	–	–	–
CN1CC[C@]23c4c5ccc(O)c4O[C@H]2[C@@H](O)C=C[C@H]3[C@H]1C5 [morphine, reference compound]	no effect	analgesic at t=1 h on d1, and at t=1 h and 2 h post-dose on d2 and d3	this effect waned	45 g	not hyperalgesic	mild hyperalgesia	< 15 g
